In ChEMBL document CHEMBL3286093 (J Med Chem, 2014):
In brackets after ≈: the same amount, converted by molar mass. Activity calls are given as the source filed them. The calls are words filed in the database; no cut-off is given here.

Key:
[1] = (§1) Cytotoxicity against human HepG2 cells after 48 hrs by Celltiter-Glo assay; assay type: cell-based; conditions: HepG2 cells, read-out: TC50
in vitro = conditions: human, HepG2 cells
Description: Selectivity ratio TC50 for human HepG2 cells to EC50 for Trypanosoma brucei brucei Lister 427

[2] = test system: Trypanosoma brucei brucei; test: microbe, parasite or virus in culture; conditions: Lister 427, 70 h
Description: Antitrypanosomal activity against bloodstream Trypanosoma brucei brucei Lister 427 after 70 hrs by resazurin assay

[3] = test system: Trypanosoma brucei brucei; test: Effect on phosphatidylcholine level in Trypanosoma brucei brucei Lister 427 at 200 nM after 12 hrs by ES-MS analysis; assay type: functional, organism-based
HepG2 = test: as §1; assay type: cell-based; conditions: hepg2, 48 h
[4] = Lipophilicity, log D of the compound at pH 7.4 by HPLC analysis; assay type: physicochemical; conditions: buffer
[5] = Solubility of compound in phosphate buffer at pH 7.4 after 1 hr; assay type: physicochemical
[6] = Apparent permeability across artificial membrane after 3 hrs by HPLC analysis; assay type: physicochemical
[7] = test system: Trypanosoma brucei brucei; test: Effect on sphingomylein level in Trypanosoma brucei brucei Lister 427 at 200 nM after 12 hrs by ES-MS analysis; assay type: functional, organism-based
[8] = test system: Trypanosoma brucei brucei; test: Effect on phosphotidyl inositol level in Trypanosoma brucei brucei Lister 427 at 200 nM after 12 hrs by ES-MS analysis; assay type: functional, organism-based
[9] = test system: Trypanosoma brucei brucei; test: Decrease in phosphotidyl inositol phosphate level in Trypanosoma brucei brucei Lister 427 at 200 nM after 12 hrs by ES-MS analysis; assay type: functional, organism-based
[10] = test system: Trypanosoma brucei brucei; test: Inhibition of receptor-mediated endocytosis in Trypanosoma brucei brucei Lister 427 assessed as decrease in transferrin uptake at 2 X EC50 after 18 hrs; assay type: functional, organism-based
[11] = test system: Trypanosoma brucei brucei; test: Antitrypanosomal activity against bloodstream Trypanosoma brucei brucei Lister 427 assessed as decrease in number of cell at G1 phase after 18 hrs by PI staining based flow cytometer; assay type: functional, organism-based
[12] = target: Serine/threonine-protein kinase mTOR (Homo sapiens, UniProt P42345); test: Inhibition of human recombinant mTOR assessed as inhibition of 4EBP1 phosphorylation after 30 mins by TR-FRET analysis
[13] = target: Phosphatidylinositol 4,5-bisphosphate 3-kinase catalytic subunit alpha isoform (Homo sapiens, UniProt P42336); test: Inhibition of human PI3K-alpha assessed as inhibition of […] after 1 hr by TR-FRET analysis
Sequence of Phosphatidylinositol 4,5-bisphosphate 3-kinase catalytic subunit alpha isoform (P42336 whole entry, canonical isoform): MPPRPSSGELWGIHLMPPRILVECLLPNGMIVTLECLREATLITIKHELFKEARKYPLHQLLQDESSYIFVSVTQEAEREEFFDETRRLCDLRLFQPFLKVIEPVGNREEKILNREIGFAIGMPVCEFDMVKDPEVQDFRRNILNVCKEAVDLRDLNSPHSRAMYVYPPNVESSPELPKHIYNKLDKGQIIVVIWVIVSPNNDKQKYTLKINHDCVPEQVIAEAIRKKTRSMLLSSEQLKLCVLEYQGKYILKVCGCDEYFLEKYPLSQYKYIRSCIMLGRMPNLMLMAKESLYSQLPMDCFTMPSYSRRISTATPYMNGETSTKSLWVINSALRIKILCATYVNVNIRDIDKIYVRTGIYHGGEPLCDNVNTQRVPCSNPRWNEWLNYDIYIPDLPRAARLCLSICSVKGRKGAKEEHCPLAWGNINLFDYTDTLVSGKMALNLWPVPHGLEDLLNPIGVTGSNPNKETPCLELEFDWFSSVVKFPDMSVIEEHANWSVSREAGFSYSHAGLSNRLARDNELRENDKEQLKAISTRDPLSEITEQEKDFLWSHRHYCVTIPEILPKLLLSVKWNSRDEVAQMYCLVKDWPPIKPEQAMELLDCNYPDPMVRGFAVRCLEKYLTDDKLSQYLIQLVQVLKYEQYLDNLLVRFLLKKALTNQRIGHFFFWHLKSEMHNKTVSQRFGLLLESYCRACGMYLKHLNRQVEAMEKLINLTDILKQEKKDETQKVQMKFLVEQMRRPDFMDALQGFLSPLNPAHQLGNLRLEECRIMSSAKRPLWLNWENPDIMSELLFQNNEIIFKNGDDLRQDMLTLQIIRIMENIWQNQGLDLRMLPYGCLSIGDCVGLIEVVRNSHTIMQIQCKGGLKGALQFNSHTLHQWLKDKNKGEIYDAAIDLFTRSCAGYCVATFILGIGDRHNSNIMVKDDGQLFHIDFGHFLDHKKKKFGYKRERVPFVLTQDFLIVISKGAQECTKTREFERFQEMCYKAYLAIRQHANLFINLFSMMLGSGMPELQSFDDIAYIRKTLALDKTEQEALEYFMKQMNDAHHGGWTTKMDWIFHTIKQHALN

[14] = target: Phosphatidylinositol 4,5-bisphosphate 3-kinase catalytic subunit beta isoform (Homo sapiens, UniProt P42338); test: Inhibition of human PI3K-beta assessed as inhibition of […] after 1 hr by TR-FRET analysis
Sequence of Phosphatidylinositol 4,5-bisphosphate 3-kinase catalytic subunit beta isoform (P42338 whole entry, canonical isoform): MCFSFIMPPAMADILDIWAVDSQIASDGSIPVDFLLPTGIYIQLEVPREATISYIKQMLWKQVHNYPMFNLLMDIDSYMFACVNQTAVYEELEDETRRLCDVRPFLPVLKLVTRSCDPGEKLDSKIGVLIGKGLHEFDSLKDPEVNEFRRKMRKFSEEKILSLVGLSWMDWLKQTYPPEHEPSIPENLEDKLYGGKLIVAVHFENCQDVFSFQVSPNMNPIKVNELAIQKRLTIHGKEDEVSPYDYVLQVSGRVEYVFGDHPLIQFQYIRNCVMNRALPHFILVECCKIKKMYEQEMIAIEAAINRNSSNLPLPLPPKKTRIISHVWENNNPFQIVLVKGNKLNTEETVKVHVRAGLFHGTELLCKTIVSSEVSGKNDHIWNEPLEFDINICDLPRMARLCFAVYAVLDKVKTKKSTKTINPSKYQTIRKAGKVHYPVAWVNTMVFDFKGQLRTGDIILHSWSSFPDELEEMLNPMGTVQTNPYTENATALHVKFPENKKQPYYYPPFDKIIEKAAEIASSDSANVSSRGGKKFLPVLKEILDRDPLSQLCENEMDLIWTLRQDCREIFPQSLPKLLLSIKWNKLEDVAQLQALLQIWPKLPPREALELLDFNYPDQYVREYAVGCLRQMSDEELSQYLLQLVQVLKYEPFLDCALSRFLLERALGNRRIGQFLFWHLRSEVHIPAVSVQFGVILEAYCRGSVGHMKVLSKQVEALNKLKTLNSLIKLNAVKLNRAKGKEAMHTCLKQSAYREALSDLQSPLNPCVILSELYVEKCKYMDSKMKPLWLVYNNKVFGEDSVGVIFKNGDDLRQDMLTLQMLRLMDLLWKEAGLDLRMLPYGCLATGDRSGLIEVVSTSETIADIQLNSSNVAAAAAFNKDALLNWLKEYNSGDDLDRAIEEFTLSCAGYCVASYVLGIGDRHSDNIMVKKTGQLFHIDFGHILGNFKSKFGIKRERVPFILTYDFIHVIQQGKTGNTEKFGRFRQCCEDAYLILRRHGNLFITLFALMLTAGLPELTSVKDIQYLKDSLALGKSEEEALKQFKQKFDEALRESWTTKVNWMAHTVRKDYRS

[15] = target: Phosphatidylinositol 4,5-bisphosphate 3-kinase catalytic subunit gamma isoform (Homo sapiens, UniProt P48736); test: Inhibition of human PI3K-gamma assessed as inhibition of […] after 1 hr by TR-FRET analysis
Sequence of Phosphatidylinositol 4,5-bisphosphate 3-kinase catalytic subunit gamma isoform (P48736 whole entry, canonical isoform): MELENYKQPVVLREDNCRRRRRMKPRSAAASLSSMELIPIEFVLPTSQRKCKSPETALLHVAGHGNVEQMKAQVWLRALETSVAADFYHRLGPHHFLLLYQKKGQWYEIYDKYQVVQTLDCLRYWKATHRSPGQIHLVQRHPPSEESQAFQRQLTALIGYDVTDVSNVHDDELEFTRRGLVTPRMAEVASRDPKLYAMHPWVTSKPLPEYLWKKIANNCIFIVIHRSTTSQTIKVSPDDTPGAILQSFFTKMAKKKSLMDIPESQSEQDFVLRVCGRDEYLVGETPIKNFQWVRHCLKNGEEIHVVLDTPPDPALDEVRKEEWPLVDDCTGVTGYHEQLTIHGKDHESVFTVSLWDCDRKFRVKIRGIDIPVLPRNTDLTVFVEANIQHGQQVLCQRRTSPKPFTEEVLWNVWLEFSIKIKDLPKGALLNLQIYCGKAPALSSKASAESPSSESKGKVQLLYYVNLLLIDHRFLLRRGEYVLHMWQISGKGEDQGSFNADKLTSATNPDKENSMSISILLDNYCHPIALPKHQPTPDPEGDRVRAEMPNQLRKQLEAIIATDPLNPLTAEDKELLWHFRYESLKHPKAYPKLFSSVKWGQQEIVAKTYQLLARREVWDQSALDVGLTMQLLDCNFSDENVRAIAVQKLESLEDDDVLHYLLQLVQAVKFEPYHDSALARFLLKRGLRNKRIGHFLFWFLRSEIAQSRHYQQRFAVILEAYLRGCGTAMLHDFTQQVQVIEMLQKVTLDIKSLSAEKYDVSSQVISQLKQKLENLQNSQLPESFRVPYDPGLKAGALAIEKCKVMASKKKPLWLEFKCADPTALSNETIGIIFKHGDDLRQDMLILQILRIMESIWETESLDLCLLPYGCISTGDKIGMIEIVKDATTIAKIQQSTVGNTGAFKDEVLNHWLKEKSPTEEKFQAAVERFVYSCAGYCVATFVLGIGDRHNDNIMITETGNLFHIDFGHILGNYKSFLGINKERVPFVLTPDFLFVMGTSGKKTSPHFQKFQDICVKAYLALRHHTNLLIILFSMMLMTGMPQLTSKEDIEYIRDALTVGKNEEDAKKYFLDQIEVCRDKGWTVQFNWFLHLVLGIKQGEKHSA

[16] = target: T1, Phosphatidylinositol 4,5-bisphosphate 3-kinase catalytic subunit delta isoform (Homo sapiens, UniProt O00329); test: Inhibition of human PI3K-delta assessed as inhibition of […] after 1 hr by TR-FRET analysis
T1 sequence (O00329 whole entry): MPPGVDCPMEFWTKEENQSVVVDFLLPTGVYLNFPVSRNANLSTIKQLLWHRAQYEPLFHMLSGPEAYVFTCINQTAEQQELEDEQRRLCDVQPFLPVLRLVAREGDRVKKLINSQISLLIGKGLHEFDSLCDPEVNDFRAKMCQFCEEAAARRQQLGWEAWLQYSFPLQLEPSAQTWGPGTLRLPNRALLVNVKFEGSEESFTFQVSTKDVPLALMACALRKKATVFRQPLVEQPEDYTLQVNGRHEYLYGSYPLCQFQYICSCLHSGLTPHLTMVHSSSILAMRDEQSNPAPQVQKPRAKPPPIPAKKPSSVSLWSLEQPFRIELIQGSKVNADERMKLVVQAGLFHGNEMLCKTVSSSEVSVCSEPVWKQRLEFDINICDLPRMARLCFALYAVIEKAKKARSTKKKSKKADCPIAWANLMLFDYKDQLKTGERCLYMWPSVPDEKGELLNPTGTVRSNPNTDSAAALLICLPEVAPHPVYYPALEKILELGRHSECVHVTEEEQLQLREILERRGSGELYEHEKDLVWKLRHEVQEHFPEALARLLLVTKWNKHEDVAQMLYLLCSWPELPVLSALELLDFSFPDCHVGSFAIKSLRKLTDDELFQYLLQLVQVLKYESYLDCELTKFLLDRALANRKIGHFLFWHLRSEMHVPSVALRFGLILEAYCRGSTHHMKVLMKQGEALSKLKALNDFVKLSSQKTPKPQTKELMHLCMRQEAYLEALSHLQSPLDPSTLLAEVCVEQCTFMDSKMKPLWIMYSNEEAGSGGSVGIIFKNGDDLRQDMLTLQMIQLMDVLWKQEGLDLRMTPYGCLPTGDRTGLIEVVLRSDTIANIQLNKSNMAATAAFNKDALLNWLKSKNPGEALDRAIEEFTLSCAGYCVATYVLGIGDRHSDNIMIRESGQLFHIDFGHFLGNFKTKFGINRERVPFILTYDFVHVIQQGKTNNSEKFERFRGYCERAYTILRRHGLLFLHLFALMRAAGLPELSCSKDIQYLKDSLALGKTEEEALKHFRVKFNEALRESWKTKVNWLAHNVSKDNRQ

Row | Compound | CC50 at 48 h [1] | selectivity ratio (in vitro) | EC50 [2] | other results
1 | Cc1ccc(-n2c(=O)n(C)c3cnc4ccc(-c5ccc(C(=O)O)cc5)cc4c32)cc1 | > 50000 nM | > 5 | 9890 nM | –
2 | N#Cc1ccc(-n2c(=O)[nH]c3cnc4ccc(-c5cnc6ccccc6c5)cc4c32)cc1 | > 50000 nM | > 270 | 184 nM | –
3 | Cn1c(=O)n(-c2ccccc2)c2c3cc(-c4cnc5ccccc5c4)ccc3ncc21 | > 25000 nM | > 1000 | 24 nM | –
4 | Cc1ccc2ncc3c(c2c1)n(-c1ccc(C(C)(C)C#N)cc1)c(=O)n3C | > 20000 nM | > 10 | 2020 nM | –
5 | N#CCc1ccc(-n2c(=O)[nH]c3cnc4ccc(-c5ccncc5)cc4c32)cc1 | > 50000 nM | > 250 | 199 nM | –
6 | Cc1ccc2ncc3c(c2c1)n(-c1ccccc1)c(=O)n3C | > 50000 nM | > 39 | 1300 nM | –
7 | Cn1c(=O)n(-c2ccc(C(F)(F)F)cc2)c2c3cc(-c4cnc5ccccc5c4)ccc3ncc21 | > 25000 nM | > 240 | 103 nM | –
8 | Cn1c(=O)n(-c2ccc(C(C)(C)C#N)cc2)c2c3cc(-c4ccc(C(F)(F)F)nc4)ccc3ncc21 | > 25000 nM | > 470 | 53 nM | –
9 | CN1CCN(Cc2ccc(-n3c(=O)n(C)c4cnc5ccc(-c6ccncc6)cc5c43)cc2)CC1 | > 7600 nM | > 2 | 3350 nM | –
10 | Cn1c(=O)n(-c2ccc(C(C)(C)C#N)cc2)c2c3cc(-c4cnc5ccccc5c4)ccc3ncc21 [DACTOLISIB] | – | – | – | Activity [3]: inactive; TC50 (HepG2): ND(Insoluble); logD [4]: 6.44; solubility kinetic at 1 h [5]: 19 µM (≈ 8.92 µg/mL); permeability [6]: ND(Insoluble); Activity [7]: inactive; Activity [8]: Active; inhibition [9]: Active; inhibition [10]: Active; inhibition [11]: inactive
11 | Cn1c(=O)n(-c2ccc(C(C)(C)C#N)cc2)c2c3cc(-c4cccnc4)ccc3ncc21 | 575 nM | 36 | 16 nM | –
12 | Cn1c(=O)n(-c2ccc(C(C)(C)C#N)cc2)c2c3cc(C#Cc4cccnc4)ccc3ncc21 | 140 nM | 17.5 | 8 nM | –
13 | Cn1c(=O)n(-c2ccc(N3CCOCC3)cc2)c2c3cc(-c4ccncc4)ccc3ncc21 | > 7600 nM | > 24 | 316 nM | –
14 | Cn1c(=O)n(-c2ccc(C#N)cc2)c2c3cc(-c4cnc5ccccc5c4)ccc3ncc21 | > 50000 nM | > 540 | 91 nM | –
15 | Cn1c(=O)n(-c2ccc(C(C)(C)C#N)cc2)c2c3cc(-c4ccncc4)ccc3ncc21 | 3430 nM | 25 | 136 nM | –
16 | COc1ccc(-n2c(=O)n(C)c3cnc4ccc(-c5ccncc5)cc4c32)cc1 | 11200 nM | 67 | 166 nM | Activity [3]: inactive; IC50 [12]: 380 nM; IC50 [13]: 501 nM; IC50 [14]: 7940 nM; IC50 [15]: 316 nM; IC50 [16]: 2510 nM; logD [4]: 5.32; solubility kinetic at 1 h [5]: 22 µM (≈ 8.41 µg/mL); permeability [6]: 86 ×10⁻⁶ cm/s; Activity [7]: inactive; Activity [8]: Active; inhibition [9]: Active; inhibition [10]: Active; inhibition [11]: inactive
17 | Cn1c(=O)n(-c2ccc(C(C)(C)C#N)cc2)c2c3cc(-c4ccccc4)ccc3ncc21 | 1820 nM | 11 | 159 nM | –

Row | Compound | CC50 at 48 h [1] | selectivity ratio (in vitro) | EC50 [2] | other results
18 | CN1CCN(c2ccc3ncc4c(c3c2)n(-c2ccc(C(C)(C)C#N)cc2)c(=O)n4C)CC1 | > 50000 nM | – | – | –
19 | Cc1ccc(-n2c(=O)n(C)c3cnc4ccc(-c5ccncc5)cc4c32)cc1 | 4780 nM | 24 | 202 nM | Activity [3]: inactive; IC50 [12]: 468 nM; IC50 [13]: 631 nM; IC50 [14]: 31600 nM; IC50 [15]: 251 nM; IC50 [16]: 2510 nM; logD [4]: 4.95; solubility kinetic at 1 h [5]: 17 µM (≈ 6.23 µg/mL); permeability [6]: 47 ×10⁻⁶ cm/s; Activity [7]: inactive; Activity [8]: Active; inhibition [9]: Active; inhibition [10]: Active; inhibition [11]: inactive
20 | CN(C)c1ccc(-n2c(=O)[nH]c3cnc4ccc(-c5ccncc5)cc4c32)cc1 | > 50000 nM | > 1100 | 42 nM | –
21 | CN(C)c1ccc(-n2c(=O)[nH]c3cnc4ccccc4c32)cc1 | 19000 nM | 3 | 6240 nM | –
22 | Cn1c(=O)n(-c2ccc(CC#N)cc2)c2c3cc(-c4ccncc4)ccc3ncc21 | > 50000 nM | > 560 | 88 nM | –
23 | Cn1c(=O)n(-c2ccc(C(C)(C)C#N)cc2)c2c3cc(N)ccc3ncc21 | > 50000 nM | > 4 | 10600 nM | –
24 | Cn1c(=O)n(-c2ccc(C#N)cc2)c2c3cc(-c4ccncc4)ccc3ncc21 | – | – | 72 nM | TC50 (HepG2): ND(Insoluble)
25 | Cn1c(=O)n(C)c2c3cc(-c4ccncc4)ccc3ncc21 | > 20000 nM | > 6 | 3270 nM | –
26 | Cn1c(=O)n(-c2ccccc2)c2c3ccccc3ncc21 | > 50000 nM | > 3 | 18500 nM | –
27 | CN(C)c1ccc(-n2c(=O)n(C)c3cnc4ccc(-c5ccncc5)cc4c32)cc1 | 2340 nM | 28 | 82 nM | –
28 | CN(C)c1ccc(-n2c(=O)n(C)c3cnc4ccccc4c32)cc1 | 3000 nM | 0.3 | 9330 nM | –
29 | Cn1c(=O)n(-c2ccc(C(C)(C)C#N)cc2)c2c3ccccc3ncc21 | > 50000 nM | > 80 | 624 nM | IC50 [12]: 1620 nM; IC50 [13]: 3980 nM; IC50 [14]: > 30000 nM; IC50 [15]: 2000 nM; IC50 [16]: 15800 nM; logD [4]: 4.69; permeability [6]: 57 ×10⁻⁶ cm/s
30 | CC(=O)Nc1ccc2ncc3c(c2c1)n(-c1ccc(C(C)(C)C#N)cc1)c(=O)n3C | > 50000 nM | > 5 | 9020 nM | –
31 | Cn1c(=O)n(-c2ccc(C(C)(C)C#N)cc2)c2c3cc(N4CCOCC4)ccc3ncc21 | > 50000 nM | > 24 | 2040 nM | –
32 | Cn1c(=O)n(-c2ccc(C(C)(C)C#N)cc2)c2c3cc(-c4cc5ccccc5s4)ccc3ncc21 | > 25000 nM | > 460 | 54 nM | –
33 | Cn1cc(-c2ccc3ncc4c(c3c2)n(-c2ccc(C(C)(C)C#N)cc2)c(=O)n4C)cn1 | – | – | 51 nM | Activity [3]: inactive; IC50 [12]: 1170 nM; IC50 [13]: 398 nM; IC50 [14]: 7940 nM; IC50 [15]: 126 nM; IC50 [16]: 794 nM; logD [4]: 5.3; permeability [6]: ND(Insoluble); Activity [7]: inactive; Activity [8]: Active; inhibition [9]: Active; inhibition [10]: inactive; inhibition [11]: Active
